Test system: 282377-053-R-J1-PDC complex spheroid viability
Experiment: Anticancer human tumor 282377-053-R-J1-PDC patient-derived colon adenocarcinoma cell line growth inhibition [RAS]
Conditions: for viability, T/C: stronger effect = lower value
Summary of the method: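 Multi-cell-type spheroids: tumor cells plus HUVEC endothelial cells and mesenchymal stem cells. RAS-pathway inhibitors were combined with targeted agents, each dosed in half-log steps down from clinical Cmax, or from 10 microM when Cmax was unknown.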

[1] = curve of first compound, second compound 0.000949 µM
[2] = curve of first compound, second compound 0.003 µM
[3] = curve of first compound, second compound 0.00949 µM
[4] = curve of first compound, second compound 0.03 µM
[5] = curve of first compound, second compound 0.0949 µM
[6] = curve of first compound, second compound 0.3 µM
[7] = second compound 0.000949 µM, first compound 0.0316 µM
[8] = second compound 0.000949 µM, first compound 0.1 µM
[9] = second compound 0.000949 µM, first compound 0.316 µM
[10] = second compound 0.000949 µM, first compound 1 µM
[11] = second compound 0.003 µM, first compound 0.0316 µM
[12] = second compound 0.003 µM, first compound 0.1 µM
[13] = second compound 0.003 µM, first compound 0.316 µM
[14] = second compound 0.003 µM, first compound 1 µM
[15] = second compound 0.00949 µM, first compound 0.0316 µM
[16] = second compound 0.00949 µM, first compound 0.1 µM
[17] = second compound 0.00949 µM, first compound 0.316 µM
[18] = second compound 0.00949 µM, first compound 1 µM
[19] = second compound 0.03 µM, first compound 0.0316 µM
[20] = second compound 0.03 µM, first compound 0.1 µM
[21] = second compound 0.03 µM, first compound 0.316 µM
[22] = second compound 0.03 µM, first compound 1 µM
[23] = second compound 0.0949 µM, first compound 0.0316 µM
[24] = second compound 0.0949 µM, first compound 0.1 µM
[25] = second compound 0.0949 µM, first compound 0.316 µM
[26] = second compound 0.0949 µM, first compound 1 µM
[27] = second compound 0.3 µM, first compound 0.0316 µM
[28] = second compound 0.3 µM, first compound 0.1 µM
[29] = second compound 0.3 µM, first compound 0.316 µM
[30] = second compound 0.3 µM, first compound 1 µM
[31] = second compound 0.000949 µM, first compound 3.16 µM
[32] = second compound 0.000949 µM, first compound 10 µM
[33] = second compound 0.003 µM, first compound 3.16 µM
[34] = second compound 0.003 µM, first compound 10 µM
[35] = second compound 0.00949 µM, first compound 3.16 µM
[36] = second compound 0.00949 µM, first compound 10 µM
[37] = second compound 0.03 µM, first compound 3.16 µM
[38] = second compound 0.03 µM, first compound 10 µM
[39] = second compound 0.0949 µM, first compound 3.16 µM
[40] = second compound 0.0949 µM, first compound 10 µM
[41] = second compound 0.3 µM, first compound 3.16 µM
[42] = second compound 0.3 µM, first compound 10 µM
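Also: spheroids exposed to agents for seven days before readout.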
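For viability, T/C in this document: luminescence viability as percent of DMSO vehicle control wells.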

Structure (SMILES): Nc1ccn(C2OC(CO)C(O)C2(F)F)c(=O)n1 (stereo unspecified) + CCn1c(-c2cc(N3CCN(C)CC3)cnc2C(C)OC)c2c3cc(ccc31)-c1csc(n1)CC(NC(=O)C1CC1C)C(=O)N1CCCC(N1)C(=O)OCC(C)(C)C2
- IC50 [1]: > 1 µM
- IC50 [2]: > 1 µM
- IC50 [3]: > 1 µM
- IC50 [4]: > 1 µM
- IC50 [5]: > 1 µM
- IC50 [6]: > 1 µM
- viability, T/C (second compound 0.000949 µM, first compound 0.00316 µM): 107%
- viability, T/C (second compound 0.000949 µM, first compound 0.01 µM): 95.1%
- viability, T/C [7]: 120%
- viability, T/C [8]: 107%
- viability, T/C [9]: 101%
- viability, T/C [10]: 66.8%
- viability, T/C (second compound 0.003 µM, first compound 0.00316 µM): 90%
- viability, T/C (second compound 0.003 µM, first compound 0.01 µM): 110%
- viability, T/C [11]: 106%
- viability, T/C [12]: 111%
- viability, T/C [13]: 93.8%
- viability, T/C [14]: 64.6%
- viability, T/C (second compound 0.00949 µM, first compound 0.00316 µM): 116%
- viability, T/C (second compound 0.00949 µM, first compound 0.01 µM): 95.9%
- viability, T/C [15]: 129%
- viability, T/C [16]: 107%
- viability, T/C [17]: 96.4%
- viability, T/C [18]: 69%
- viability, T/C (second compound 0.03 µM, first compound 0.00316 µM): 104%
- viability, T/C (second compound 0.03 µM, first compound 0.01 µM): 100%
- viability, T/C [19]: 108%
- viability, T/C [20]: 115%
- viability, T/C [21]: 86.7%
- viability, T/C [22]: 71.5%
- viability, T/C (second compound 0.0949 µM, first compound 0.00316 µM): 104%
- viability, T/C (second compound 0.0949 µM, first compound 0.01 µM): 95.2%
- viability, T/C [23]: 100%
- viability, T/C [24]: 106%
- viability, T/C [25]: 123%
- viability, T/C [26]: 72.5%
- viability, T/C (second compound 0.3 µM, first compound 0.00316 µM): 120%
- viability, T/C (second compound 0.3 µM, first compound 0.01 µM): 94.2%
- viability, T/C [27]: 129%
- viability, T/C [28]: 131%
- viability, T/C [29]: 118%
- viability, T/C [30]: 108%

Structure (SMILES): C#Cc1c(F)ccc2cc(O)cc(-c3ncc4c(N5CC6CCC(C5)N6)nc(OCC56CCCN5CC(F)C6)nc4c3F)c12 (stereo unspecified)
- viability, T/C (compound 0.1 µM): 104% [middle of 8 runs]
- viability, T/C (compound 0.316 µM): 102% [middle of 8 runs]
- viability, T/C (compound 3.16 µM): 111% [middle of 8 runs]
- viability, T/C (compound 10 µM): 104% [middle of 8 runs]
- IC50 (compound alone, run of 06/10/2024): > 10 µM

Structure (SMILES): CC1(O)CCCC1n1c(=O)c(C(F)F)cc2cnc(NC3CCN(S(C)(=O)=O)CC3)nc21 (stereo unspecified) + CCn1c(-c2cc(N3CCN(C)CC3)cnc2C(C)OC)c2c3cc(ccc31)-c1csc(n1)CC(NC(=O)C1CC1C)C(=O)N1CCCC(N1)C(=O)OCC(C)(C)C2
- IC50 [1]: 6.75 µM
- IC50 [2]: 7.15 µM
- IC50 [3]: 7.03 µM
- IC50 [4]: 6.98 µM
- IC50 [5]: 6.92 µM
- IC50 [6]: 7.08 µM
- viability, T/C [7]: 101%
- viability, T/C [8]: 141%
- viability, T/C [9]: 112%
- viability, T/C [10]: 155%
- viability, T/C [31]: 162%
- viability, T/C [32]: 6.35%
- viability, T/C [11]: 116%
- viability, T/C [12]: 117%
- viability, T/C [13]: 151%
- viability, T/C [14]: 146%
- viability, T/C [33]: 204%
- viability, T/C [34]: 10.2%
- viability, T/C [15]: 91.9%
- viability, T/C [16]: 115%
- viability, T/C [17]: 165%
- viability, T/C [18]: 153%
- viability, T/C [35]: 189%
- viability, T/C [36]: 9.24%
- viability, T/C [19]: 112%
- viability, T/C [20]: 104%
- viability, T/C [21]: 169%
- viability, T/C [22]: 182%
- viability, T/C [37]: 167%
- viability, T/C [38]: 6.22%
- viability, T/C [23]: 94.1%
- viability, T/C [24]: 141%
- viability, T/C [25]: 139%
- viability, T/C [26]: 141%
- viability, T/C [39]: 203%
- viability, T/C [40]: 5.83%
- viability, T/C [27]: 106%
- viability, T/C [28]: 134%
- viability, T/C [29]: 152%
- viability, T/C [30]: 190%
- viability, T/C [41]: 174%
- viability, T/C [42]: 6.62%

Structure (SMILES): NC1c2ccccc2OC12CCN(c1cnc3c(N4CCCc5ncccc54)n[nH]c3n1)CC2 (stereo unspecified) + CCn1c(-c2cc(N3CCN(C)CC3)cnc2C(C)OC)c2c3cc(ccc31)-c1csc(n1)CC(NC(=O)C1CC1C)C(=O)N1CCCC(N1)C(=O)OCC(C)(C)C2
- IC50 [1]: > 10 µM
- IC50 [2]: > 10 µM
- IC50 [3]: > 10 µM
- IC50 [4]: > 10 µM
- IC50 [5]: > 10 µM
- IC50 [6]: > 10 µM
- viability, T/C [7]: 96.6%
- viability, T/C [8]: 102%
- viability, T/C [9]: 87.7%
- viability, T/C [10]: 99.9%
- viability, T/C [31]: 106%
- viability, T/C [32]: 140%
- viability, T/C [11]: 97.4%
- viability, T/C [12]: 102%
- viability, T/C [13]: 96.3%
- viability, T/C [14]: 99%
- viability, T/C [33]: 93.7%
- viability, T/C [34]: 98.6%
- viability, T/C [15]: 135%
- viability, T/C [16]: 96.2%
- viability, T/C [17]: 111%
- viability, T/C [18]: 90.8%
- viability, T/C [35]: 100%
- viability, T/C [36]: 107%
- viability, T/C [19]: 115%
- viability, T/C [20]: 109%
- viability, T/C [21]: 101%
- viability, T/C [22]: 123%
- viability, T/C [37]: 122%
- viability, T/C [38]: 97%
- viability, T/C [23]: 108%
- viability, T/C [24]: 118%
- viability, T/C [25]: 100%
- viability, T/C [26]: 107%
- viability, T/C [39]: 111%
- viability, T/C [40]: 112%
- viability, T/C [27]: 126%
- viability, T/C [28]: 152%
- viability, T/C [29]: 105%
- viability, T/C [30]: 117%
- viability, T/C [41]: 110%
- viability, T/C [42]: 106%

From PubChem BioAssay AID2060905 (Molecular Pharmacology Branch, DTP, NCI, 2025)
